The values below come from US20100184732A1, “METHOD OF LONG-TERM TREATMENT OF GRAFT-VERSUS-HOST DISEASE USING TOPICAL ACTIVE CORTICOSTEROIDS” (priority 2000, published 2010).

Structures are written as SMILES.

The test system of one data set is patients with GVHD. Particulars: high-dose prednisone, 2 mg per kg per day; cited from earlier work.
The subject of data set [1] is patients with Grade II GVHD with gastrointestinal symptoms. The experiment in a line: Phase III randomized, double-blind, placebo-controlled trial of oral BDP plus 10 days of prednisone: treatment failure and survival. The class given is in vivo, human. Particulars: for Treatment failure rate (95% CI): Kaplan-Meier estimate. An excerpt: The Secondary objectives of the study were: • 1. To compare the proportion of treatment failures in the two groups on Study Days 10, 30, 50, 60, and 80. • 2. To compare the treatment groups with respect to cumulative systemic corticosteroid exposure. • 3. […] To compare the treatment groups with respect to total deaths and cause of death through 200 days post-transplant. • 6.
To be eligible for entry into the study, patients must be at least 10 days post allogeneic hematopoietic cell transplantation, have GI symptoms consistent with Grade II GVHD, and have endoscopic evidence of GVHD. The diagnosis of GVHD was confirmed by biopsy of the intestine (esophagus, stomach, small intestine, or colon) or skin.
This was a multi-center, randomized, double-blind, placebo-controlled, parallel-group study in patients with Grade II GVHD with GI symptoms. To determine eligibility for entry into the study, patients must undergo a screening evaluation, including intestinal or skin biopsy and infection work-up.
The randomization was stratified by the source of the allograft (two HLA haplotype identical sibling versus all other), and by topical corticosteroid use (yes versus no). All patients received 10 days of prednisone at 1 mg/kg/day (or an equivalent dose of intravenous [IV] corticosteroid).
For all patients, the second dose of study drug was administered on the morning of Study Day 2, after which dosing was 4 times daily until Study Day 50.
All patients are monitored per standard post transplant routine in the hospital or outpatient clinic. Patients underwent study evaluations, included blood specimens for PK analysis, on Study Days 10, 30, 50, 60, and 80. In addition, adverse events that occurred during the interval since the prior visit are assessed and recorded. Following the final dose of study drug on the morning of Study Day 50, timed blood samples were obtained for up to 24 hours for PK analysis from some patients.
• 1. […] Karnofsky Scale score if the patient is 16 years of age or older or the Lansky Scale score if the patient is younger than 16 years of age.
• 1. Adverse events. • 2. Cumulative prednisone dose (per kg of body weight). • 3. Worsening of GVHD as determined through the assessment of diarrhea, rash, and bilirubin levels. • 4. HPA axis function. • 5. Hematology measurements (with differential, including eosinophils) at Baseline and Study Day 50. • 6. Serum chemistry and urinalysis measurements at Baseline and Study Day 50. • 7. Patient survival through day 200 post-transplant.
The primary efficacy endpoint of this two-arm study is the time to treatment failure. The primary efficacy analysis will compare the time to treatment failure through Study Day 50 using a log-rank test controlling for patient randomization stratum. Product-limit estimates for time to failure will be provided for descriptive purposes. The null hypothesis for the log-rank test is that time to failure is homogeneous across the treatment groups.
Secondary analyses of treatment failure compared the treatment groups with respect to proportion of treatment failures and Karnofsky Scale (or Lansky Scale) scores at key time points.
Both regimens included oral prednisone (1 mg/kg/day) or an equivalent dose of IV methylprednisolone (dose of IV methylprednisolone=0.8×dose of oral prednisone) given in 2 divided doses per day on Study Days 1 to 10.
On Study Day 10, patients were evaluated for the signs and symptoms of GVHD. […] Starting on Study Day 17, physiologic replacement doses of prednisone were given for the remainder of the study. If the investigator determined that GVHD was not controlled on Study Day 10, patients discontinued study drug but continued prednisone initially at 1 mg/kg/day; these patients were considered to be treatment failures. In treatment failure cases, physicians subsequently modified prednisone dosage as deemed appropriate.

For data set [2], the system named is patients with gastrointestinal GVHD. To be noted: cited from earlier work.

As for `C[C@]12C=CC(=O)C=C1CC[C@@H]1[C@@H]2C(=O)C[C@@]2(C)[C@H]1CC[C@]2(O)C(=O)CO` [Prednisone, prednisone], the “complete and sustained remission of gastrointestinal symptoms” value in the data set on patients with GVHD is 50-70 % of patients.

Turning to `CCC(=O)OCC(=O)[C@@]1(OC(=O)CC)[C@@H](C)C[C@H]2[C@@H]3CCC4=CC(=O)C=C[C@]4(C)[C@@]3(Cl)[C@@H](O)C[C@@]21C` [BDP, beclomethasone dipropionate], in data set [1] (200 days post-transplant, Safety Population), the “Day 200 survival rate (95% CI)” value is 0.91 (0.86, 0.98). Besides, the “Treatment failure rate (95% CI)” value in data set [1] (Study Day 10) was 0.14 (0.08, 0.24); in data set [1] (Study Day 30), 0.25 (0.18, 0.37); in data set [1] (Study Day 50) it was 0.31 (0.23, 0.43); in data set [1] (Study Day 60), 0.33 (0.24, 0.45); in data set [1] (Study Day 80) it was 0.39 (0.30, 0.52). Besides, the “time to treatment failure through Day 50 (primary endpoint), significance versus placebo” value in data set [1] (through Day 50, p-value 0.1177) is listed as “did not achieve statistical significance”. Besides, in data set [1] (through Day 80, p-value 0.0226), the “time to treatment failure through Day 80 (secondary endpoint), significance versus placebo” value was “did achieve statistical significance”. Moreover, in data set [2] (8 mg daily oral, BDP alone and added to prednisone), the “appetite, oral intake, nausea and diarrhea over the course of therapy” value is given as “Significant improvement”. The treatment-related adverse events entry in data set [2] (8 mg/day for 28 days) was “No significant treatment-related adverse events”. Further, the time to improvement in data set [2] (BDP as monotherapy) is 7 to 10 days. Also, the “safety and efficacy in mild-to-moderate intestinal GVHD” value in data set [2] (alone or added to prednisone) was “safe and effective”.
